EC50 data for 24 compounds are collected here from patent publication US11046686B2, “Thiadiazole IRAK4 compounds” (Gilead Sciences, Inc., priority 2018, dated 2021).

Structures are written as SMILES.

In one assay the test system is TNFα. The assay can be described thus: IRAK4 Monocyte TNFα Cell Based Assay. Set-up: species or system human. To be noted: Homo sapiens, Monocyte, read-out: EC50 MONO TNF HTRF. Put shortly: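 TNFα release quantified by HTRF (cryptate/XL665 antibody pair, overnight at RT) after 1 h compound pre-incubation (0.1% DMSO) and 4 h LPS challenge at 50 pg/ml, 37 °C, 5,000 monocytes per well. Signal ratio normalised between unstimulated (0%) and stimulated (100%) controls.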
For the compound `CC(C)Nc1cc(-c2ccc3cc(C#N)cnn23)ncc1-c1nnc(N2CC3CC(C2)N3C(=O)CN=S(C)(C)=O)s1` [Example 107, 7-(5-(5-(6-(2-((dimethyl(oxo)-16-sulfanylidene)amino)acetyl)-3,6-diazabicyclo[3.1.1]heptan-3-yl)-1,3,4-thiadiazol-2-yl)-4-(isopropylamino)pyridin-2-yl)pyrrolo[1,2-b]pyridazine-3-carbonitrile], the EC50 was determined as 18.4 nM.

For the compound `CC(C)Nc1cc(-c2ccc3cc(C#N)cnn23)ncc1-c1nnc(N2CC3CC(C2)N3C(=O)N2CCN(C)CC2)s1` [Example 108, 7-(4-(isopropylamino)-5-(5-(6-(4-methylpiperazine-1-carbonyl)-3,6-diazabicyclo[3.1.1]heptan-3-yl)-1,3,4-thiadiazol-2-yl)pyridin-2-yl)pyrrolo[1,2-b]pyridazine-3-carbonitrile], the half-maximal effective concentration (EC50) stood at 20.6 nM.

As to `CC(=O)N1C2CC1CN(c1nnc(-c3cnc(-c4ccc5cc(C#N)cnn45)cc3NC3(C)COC3)s1)C2` [Example 111, 7-(5-(5-(6-acetyl-3,6-diazabicyclo[3.1.1]heptan-3-yl)-1,3,4-thiadiazol-2-yl)-4-((3-methyloxetan-3-yl)amino)pyridin-2-yl)pyrrolo[1,2-b]pyridazine-3-carbonitrile], the concentration for a half-maximal effect (EC50) is 8.8 nM.

Consider `CC1(Nc2cc(-c3ccc4cc(C#N)cnn34)ncc2-c2nnc(N3CC4CC(C3)N4C(=O)C(C)(C)O)s2)COC1` [Example 112, 7-(5-(5-(6-(2-hydroxy-2-methylpropanoyl)-3,6-diazabicyclo[3.1.1]heptan-3-yl)-1,3,4-thiadiazol-2-yl)-4-((3-methyloxetan-3-yl)amino)pyridin-2-yl)pyrrolo[1,2-b]pyridazine-3-carbonitrile], for which the EC50 is 13.1 nM.

For the compound `CN1CCN(C(=O)N2C3CC2CN(c2nnc(-c4cnc(-c5ccc6cc(C#N)cnn56)cc4NC4(C)COC4)s2)C3)CC1` [Example 114, 7-(4-((3-methyloxetan-3-yl)amino)-5-(5-(6-(4-methylpiperazine-1-carbonyl)-3,6-diazabicyclo[3.1.1]heptan-3-yl)-1,3,4-thiadiazol-2-yl)pyridin-2-yl)pyrrolo[1,2-b]pyridazine-3-carbonitrile], the EC50 amounted to 24.4 nM.

As to `CN1CCC(C(=O)N2C3CC2CN(c2nnc(-c4cnc(-c5ccc6cc(C#N)cnn56)cc4NC4(C)COC4)s2)C3)CC1` [Example 118, 7-(4((3-methyloxetan-3-yl)amino)-5-(5-(6-(1-methylpiperidine-4-carbonyl)-3,6-diazabicyclo[3.1.1]heptan-3-yl)-1,3,4-thiadiazol-2-yl)pyridin-2-yl)pyrrolo[1,2-b]pyridazine-3-carbonitrile], the concentration for a half-maximal effect (EC50) was found to be 29 nM.

The same assay, now with this note: human monocytes; second part of Table 2, compounds 33-343; unit inferred; read-out: EC50 MONO TNF HTRF.
Regarding `COC(=O)N1CCN(C(=O)N[C@@H]2[C@@H]3CC[C@H]2CN(c2nnc(-c4cnc(-c5ccc6cc(C#N)cnn56)cc4NC(C)C)s2)C3)CC1` [Example 105, methyl 4-(((1R,5S,8s)-3-(5-(6-(3-cyanopyrrolo[1,2-b]pyridazin-7-yl)-4-(isopropylamino)pyridin-3-yl)-1,3,4-thiadiazol-2-yl)-3-azabicyclo[3.2.1]octan-8-yl)carbamoyl)piperazine-1-carboxylate], the EC50 was found to be 4.2 nM.

With `CC(C)Nc1cc(-c2ccc3cc(C#N)cnn23)ncc1-c1nnc(N2C[C@H]3CC[C@@H](C2)[C@@H]3NC(=O)N2CCN(S(C)(=O)=O)CC2)s1` [Example 106, N-((1R,5S,8s)-3-(5-(6-(3-cyanopyrrolo[1,2-b]pyridazin-7-yl)-4-(isopropylamino)pyridin-3-yl)-1,3,4-thiadiazol-2-yl)-3-azabicyclo[3.2.1]octan-8-yl)-4-(methylsulfonyl)piperazine-1-carboxamide], the half-maximal effective concentration (EC50) was 2.6 nM.

For the compound `CC1(Nc2cc(-c3ccc4cc(C#N)cnn34)ncc2-c2nnc(N3C[C@H]4CC[C@@H](C3)[C@@H]4NC(=O)CN=S(C)(C)=O)s2)COC1` [Example 109, N-((1R,5S,8s)-3-(5-(6-(3-cyanopyrrolo[1,2-b]pyridazin-7-yl)-4-((3-methyloxetan-3-yl)amino)pyridin-3-yl)-1,3,4-thiadiazol-2-yl)-3-azabicyclo[3.2.1]octan-8-yl)-2-((dimethyl(oxo)-16-sulfanylidene)amino)acetamide], the EC50 amounted to 4.1 nM.

As to `CN1CCN(C(=O)N[C@@H]2[C@@H]3CC[C@H]2CN(c2nnc(-c4cnc(-c5ccc6cc(C#N)cnn56)cc4NC4(C)COC4)s2)C3)CC1` [Example 110, N-((1R,5S,8s)-3-(5-(6-(3-cyanopyrrolo[1,2-b]pyridazin-7-yl)-4-((3-methyloxetan-3-yl)amino)pyridin-3-yl)-1,3,4-thiadiazol-2-yl)-3-azabicyclo[3.2.1]octan-8-yl)-4-methylpiperazine-1-carboxamide], the concentration for a half-maximal effect (EC50) came to 1.8 nM.

For the compound `CC1(Nc2cc(-c3ccc4cc(C#N)cnn34)ncc2-c2nnc(N3CC4CC(C3)N4C(=O)CN=S(C)(C)=O)s2)COC1` [Example 113, 7-(5-(5-(6-(2-((dimethyl(oxo)-16-sulfanylidene)amino)acetyl)-3,6-diazabicyclo[3.1.1]heptan-3-yl)-1,3,4-thiadiazol-2-yl)-4-((3-methyloxetan-3-yl)amino)pyridin-2-yl)pyrrolo[1,2-b]pyridazine-3-carbonitrile], the half-maximal effective concentration (EC50) is 47.4 nM.

For `C[C@H](C#N)Nc1cc(-c2ccc3cc(C#N)cnn23)ncc1-c1nnc(N2CC3CC(C2)N3C(=O)C(C)(C)O)s1` [Example 115], the EC50 was 3.5 nM.

On to `CC(C)Nc1cc(-c2ccc3cc(C#N)cnn23)ncc1-c1nnc(N2CC3CC(C2)N3C(=O)C2CCN(C)CC2)s1` [Example 117], for which the EC50 stood at 11.1 nM.

Take `CN1CCC(C(=O)N[C@@H]2[C@@H]3CC[C@H]2CN(c2nnc(-c4cnc(-c5ccc6cc(C#N)cnn56)cc4NC4(C)COC4)s2)C3)CC1` [Example 119, N-((1R,5S,8s)-3-(5-(6-(3-cyanopyrrolo[1,2-b]pyridazin-7-yl)-4-((3-methyloxetan-3-yl)amino)pyridin-3-yl)-1,3,4-thiadiazol-2-yl)-3-azabicyclo[3.2.1]octan-8-yl)-1-methylpiperidine-4-carboxamide]: the EC50 turned out to be 1.2 nM.

Regarding `CC(C)Nc1cc(-c2ccc3cc(C#N)cnn23)ncc1-c1nnc([C@H]2CC[C@H](NC(=O)C3CC3)CC2)s1` [Example 125, N-((1r,4r)-4-(5-(6-(3-cyanopyrrolo[1,2-b]pyridazin-7-yl)-4-(isopropylamino)pyridin-3-yl)-1,3,4-thiadiazol-2-yl)cyclohexyl)cyclopropanecarboxamide], the EC50 stood at 5.4 nM.

As for `COC(=O)N[C@H]1CC[C@H](c2nnc(-c3cnc(-c4ccc5cc(C#N)cnn45)cc3NC(C)C)s2)CC1` [Example 126, methyl ((1r,4r)-4-(5-(6-(3-cyanopyrrolo[1,2-b]pyridazin-7-yl)-4-(isopropylamino)pyridin-3-yl)-1,3,4-thiadiazol-2-yl)cyclohexyl)carbamate], the EC50 turned out to be 26.2 nM.

`COC(=O)NC[C@H]1C[C@H](Nc2cc(-c3ccc4cc(C#N)cnn34)ncc2-c2nnc([C@H]3CC[C@H](NC(=O)C4CC4)CC3)s2)C1` [Example 134, methyl (((1R,3r)-3-((2-(3-cyanopyrrolo[1,2-b]pyridazin-7-yl)-5-(5-((1r,4R)-4-(cyclopropanecarboxamido)cyclohexyl)-1,3,4-thiadiazol-2-yl)pyridin-4-yl)amino)cyclobutyl)methyl)carbamate]: the EC50 is 6.9 nM.

`N#Cc1cnn2c(-c3cc(NC4COC4)c(-c4nnc([C@H]5CC[C@H](NC(=O)C6CC6)CC5)s4)cn3)ccc2c1` [Example 135, N-((1r,4r)-4-(5-(6-(3-cyanopyrrolo[1,2-b]pyridazin-7-yl)-4-(oxetan-3-ylamino)pyridin-3-yl)-1,3,4-thiadiazol-2-yl)cyclohexyl)cyclopropanecarboxamide]: the EC50 is 10.5 nM.

As for `CC(C)Nc1cc(-c2ccc3cc(C#N)cnn23)ncc1-c1nnc(C2CCN(C3COC3)CC2)s1` [Example 138], the EC50 came to 15 nM.

In the case of `CC(C)Nc1cc(-c2ccc3cc(C#N)cnn23)ncc1-c1nnc([C@H]2CC[C@H](NC(=O)N3CCOCC3)CC2)s1` [Example 139, N-((1r,4r)-4-(5-(6-(3-cyanopyrrolo[1,2-]Apyridazin-7-yl)-4-(isopropylamino)pyridin-3-yl)-1,3,4-thiadiazol-2-yl)cyclohexyl)morpholine-4-carboxamide], the EC50 amounted to 5.9 nM.

Take `CNC(=O)N[C@H]1CC[C@H](c2nnc(-c3cnc(-c4ccc5cc(C#N)cnn45)cc3NC(C)C)s2)CC1` [Example 140, 1-((1r,4r)-4-(5-(6-(3-cyanopyrrolo[1,2-b]pyridazin-7-yl)-4-(isopropylamino)pyridin-3-yl)-1,3,4-thiadiazol-2-yl)cyclohexyl)-3-methylurea]: the EC50 came to 6.4 nM.

For the compound `COC(=O)NC[C@H]1C[C@H](Nc2cc(-c3ccc4cc(C#N)cnn34)ncc2-c2nnc([C@H]3CC[C@H](NC(=O)N4CCOCC4)CC3)s2)C1` [Example 143], the EC50 stood at 3.1 nM.

For the compound `CC(=O)N[C@@H]1[C@@H]2CC[C@H]1CN(c1nnc(-c3cnc(-c4ccc5cc(C#N)cnn45)cc3NC3(C)COC3)s1)C2` [Example 144, N-((1R,5S,8s)-3-(5-(6-(3-cyanopyrrolo[1,2-b]pyridazin-7-yl)-4-((3-methyloxetan-3-yl)amino)pyridin-3-yl)-1,3,4-thiadiazo1-2-yl)-3-azabicyclo[3.2.1]octan-8-yl)acetamide], the EC50 amounted to 2.3 nM.

Consider `CC(C)Nc1cc(-c2ccc3cc(C#N)cnn23)ncc1-c1nnc(N2C[C@H]3CC[C@@H](C2)[C@H]3O)s1` [Example 146, 7-(5-(5-((1R,5S,8r)-8-hydroxy-3-azabicyclo[3.2.1]octan-3-yl)-1,3,4-thiadiazol-2-yl)-4-(isopropylamino)pyridin-2-yl)pyrrolo[1,2-b]pyridazine-3-carbonitrile], for which the EC50 worked out at 5.2 nM.

By EC50 is commonly meant the concentration that produces a half-maximal response.
